Paper PMC6474336, “Cloning and characterization of a tyrosine decarboxylase involved in the biosynthesis of galanthamine in Lycoris aurea” (PeerJ, 2019)

Experiments:
LaTYDC1 [1] = assay: HPLC of dopamine formed; type: biochemical, Lycoris aurea; settings: pyridoxal-5-phosphate, 50 mM Tris-HCl pH 8.0, 37 °C; GST fusion
Source text: HPLC of dopamine formed on LaTYDC1

LaTYDC1 [2] = assay: HPLC of tyramine formed; type: biochemical, Lycoris aurea; settings: pyridoxal-5-phosphate, 50 mM Tris-HCl pH 8.0, 37 °C; GST fusion; Table 1 labels this row 'Tyramine' and prints error ± 0.12

Row | Structure (SMILES) | Km (LaTYDC1 [1]) [µM] | Km (LaTYDC1 [2]) [µM]
1 | N[C@@H](Cc1ccc(O)c(O)c1)C(=O)O [L-Dopa, 3,4-dihydroxy-L-phenylalanine] | 966 ± 79 | –
2 | N[C@@H](Cc1ccc(O)cc1)C(=O)O [L-tyrosine] | – | 602 ± 38
